The term IC50 denotes the concentration that gives 50% inhibition.

The experiment deals with T1, N-acetylgalactosamine-6-sulfatase (GALNS) (Homo sapiens, UniProt P34059).
T1 construct: Isolated leukocytes were disrupted by sonication; from tissue; host or cells: human leukocytes from healthy donors (sonicated homogenate)
T1 sequence (P34059 27-522): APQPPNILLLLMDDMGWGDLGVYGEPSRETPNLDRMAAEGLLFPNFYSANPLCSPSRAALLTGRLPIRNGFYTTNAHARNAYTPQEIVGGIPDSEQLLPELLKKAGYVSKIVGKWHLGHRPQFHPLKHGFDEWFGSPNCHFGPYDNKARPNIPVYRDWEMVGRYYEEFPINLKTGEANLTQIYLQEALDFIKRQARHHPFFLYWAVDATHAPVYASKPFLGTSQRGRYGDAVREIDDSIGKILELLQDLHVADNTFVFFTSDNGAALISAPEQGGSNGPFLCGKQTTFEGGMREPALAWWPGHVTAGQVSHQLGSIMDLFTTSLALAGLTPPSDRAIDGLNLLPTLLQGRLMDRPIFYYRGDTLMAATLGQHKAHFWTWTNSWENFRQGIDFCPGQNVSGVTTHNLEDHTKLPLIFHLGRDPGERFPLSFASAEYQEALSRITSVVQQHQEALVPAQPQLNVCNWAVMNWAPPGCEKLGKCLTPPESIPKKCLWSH
As to the kind of experiment: GALNS inhibition in leukocyte homogenate from healthy donors (4-methylumbelliferyl-β-galactoside-6-sulfate substrate, fluorescence). Format: biochemical. As to the method:
A preliminary biological screening of the newly synthesized multivalent compounds at 1 mM inhibitor concentration was performed against GALNS in leukocytes isolated from healthy donors. Enzymatic assays were performed in triplicate by incubating leukocyte homogenate, compound, and substrate (4-methylumbelliferyl-β-galactoside-6-sulfate.Na) in Na-acetate/acetic acid buffer (pH 4.3) at 37 °C for 17 h, followed by the addition of β-galactosidase from Aspergillus oryzae and further incubation to release 4-methylumbelliferone. The fluorescence was measured, and the inhibition percentages were calculated relative to the control. The results are summarized in Table 1, Table 2, Table 3 and Table 4, along with new inhibition data toward GALNS of multivalent inhibitors whose synthesis was reported previously by our group (23, 26, 30, 51, 52–54). For compounds showing poor to negligible inhibitory activity, only the GALNS inhibition percentage at 1 mM was reported.
Enzymatic assays towards human GALNS in leukocytes isolated from healthy donors.
All experiments on biological materials were performed in accordance with the ethical standards of the institutional research committee and with the 1964 Helsinki Declaration and its later amendments. In keeping with ethical guidelines, all blood and cell samples were obtained for storage and analysed only after written informed consent of the patients (and/or their family members) was obtained, using a form approved by the local Ethics Committee (Assigned code: Lysolate “Late -onset Lysosomal Storage Disorders (LSDs) in the differential diagnosis of neurodegenerative diseases: development of new diagnostic procedures and focus on potential pharmacological chaperones (PCs).” Project ID code: 16774_bio, 5 May 2020, Comitato Etico Regionale per la Sperimentazione Clinica della Regione Toscana, Area Vasta Centro, Florence, Italy). Control and patient samples were anonymized and used only for research purposes.
A preliminary biological screening of compounds at 1 mM was performed towards GALNS in leukocytes isolated from healthy donors (controls). Isolated leukocytes were disrupted by sonication, and a micro BCA protein assay kit (Sigma–Aldrich) was used to determine the total protein amount for the enzymatic assay, according to the manufacturer instructions. Enzyme activity was measured by setting the reaction in 0.2 mL tubes and performing the experiments in triplicates as follows. Compound solution (3 µL), 4.29 μg/μL leukocyte homogenate 1:5 (7 μL) and 20 µL of 4-methylumbelliferyl-β-galactoside-6-sulfate.Na substrate solution (6.66mM) in Na-Acetate/acetic acid buffer (0.1 M/0.1 M, pH 4.3) containing 0.1 M NaCl, 0.02% (w/v) NaN3 and 5 mM Pb-acetate were incubated for 17 h at 37 °C. After step one, the tubes were placed on an ice cooler and the reaction was stopped by addition of 5 µL of Na-phosphate buffer (0.9 M, pH 4.3) containing 0.02 % (w/v) of NaN3 and by efficient mixing with vortex. Then, 10 µL of β-galactosidase from Aspergillus oryzae (β-Gal-A-10U) were added to each sample and samples were incubated for 2 h at 37°C. At the end of this period the tubes were placed on an ice cooler and the samples were transferred in a cooled flat –bottomed 96 well plate and the reaction was immediately stopped with 2 00 µL of NaHCO3/Na2CO3 buffer (0.5 M/0.5 M pH 10.7) containing 0.025% (w/v) of Triton X -100. Fluorescence was measured in a SpectraMax M2 microplate reader (Molecular-Devices) using a 365 nm excitation wavelength and a 435 nm emission wavelength. Percentage of GALNS inhibition was given with respect to the control (without compound).
Experiments were performed in triplicate, and the mean ± S. D. was calculated.
Figure S52. GALNS activity in the absence Figure S53. GALNS activity in the absence (Ctrl) and presence of scaffold 12 at a 1 mM (Ctrl) and presence of the new multivalent […]
The corresponding calculated inhibition of the main text) at a 1 mM concentration in […]

Setting [1] is: calculated considering 34 as the monovalent reference compound.

Marks after values point to notes of the source that are not given here.

As for `O=C(NC(COCc1cn(CCCCCCN2CC(O)C(O)C2CO)nn1)(COCc1cn(CCCCCCN2CC(O)C(O)C2CO)nn1)COCc1cn(CCCCCCN2CC(O)C(O)C2CO)nn1)c1cc(C(=O)NC(COCc2cn(CCCCCCN3CC(O)C(O)C3CO)nn2)(COCc2cn(CCCCCCN3CC(O)C(O)C3CO)nn2)COCc2cn(CCCCCCN3CC(O)C(O)C3CO)nn2)cc(C(=O)NC(COCc2cn(CCCCCCN3CC(O)C(O)C3CO)nn2)(COCc2cn(CCCCCCN3CC(O)C(O)C3CO)nn2)COCc2cn(CCCCCCN3CC(O)C(O)C3CO)nn2)c1` (stereo not shown) [Compound 1], the “rp (relative potency)” value was 83 under setting [1] and 1.5 (calculated with respect to the scaffold 38).

`OCC1C(O)C(O)CN1CCCCCCn1cc(COCC(COCc2cn(CCCCCCN3CC(O)C(O)C3CO)nn2)(COCc2cn(CCCCCCN3CC(O)C(O)C3CO)nn2)NCc2cc(CNC(COCc3cn(CCCCCCN4CC(O)C(O)C4CO)nn3)(COCc3cn(CCCCCCN4CC(O)C(O)C4CO)nn3)COCc3cn(CCCCCCN4CC(O)C(O)C4CO)nn3)cc(CNC(COCc3cn(CCCCCCN4CC(O)C(O)C4CO)nn3)(COCc3cn(CCCCCCN4CC(O)C(O)C4CO)nn3)COCc3cn(CCCCCCN4CC(O)C(O)C4CO)nn3)c2)nn1` (stereo not shown) [Compound 36]: the “rp (relative potency)” value under setting [1] was 139 ^[b]. The same compound returned an IC50 (human leukocyte extracts) of 28 ± 5 µM.

The values are drawn from paper PMC12113998, “Exploring Multivalent Architectures for Binding and Stabilization of N-Acetylgalactosamine 6-Sulfatase” (Molecules, 2025).
